Laboratory results reported in ChEMBL document CHEMBL1149860, “Synthesis and neuropharmacological characterization of 2-O-substituted apomorphines” (Bioorg Med Chem, 2008).

Tests used:
D(2) dopamine receptor [1] = molecular target: T1, D(2) dopamine receptor (Rattus norvegicus, UniProt P61169); assay: Displacement of [3H]raclopride from dopamine D2 receptor in rat striatal membrane; format: cell membranes, Striatum
D(1A) dopamine receptor = D(1A) dopamine receptor (Mus musculus, UniProt Q61616); assay: Displacement of [3H]SCH23390 from dopamine D1 receptor in mouse Ltk- fibroblast cells; format: cell-based
Chain of D(1A) dopamine receptor (Q61616 whole entry): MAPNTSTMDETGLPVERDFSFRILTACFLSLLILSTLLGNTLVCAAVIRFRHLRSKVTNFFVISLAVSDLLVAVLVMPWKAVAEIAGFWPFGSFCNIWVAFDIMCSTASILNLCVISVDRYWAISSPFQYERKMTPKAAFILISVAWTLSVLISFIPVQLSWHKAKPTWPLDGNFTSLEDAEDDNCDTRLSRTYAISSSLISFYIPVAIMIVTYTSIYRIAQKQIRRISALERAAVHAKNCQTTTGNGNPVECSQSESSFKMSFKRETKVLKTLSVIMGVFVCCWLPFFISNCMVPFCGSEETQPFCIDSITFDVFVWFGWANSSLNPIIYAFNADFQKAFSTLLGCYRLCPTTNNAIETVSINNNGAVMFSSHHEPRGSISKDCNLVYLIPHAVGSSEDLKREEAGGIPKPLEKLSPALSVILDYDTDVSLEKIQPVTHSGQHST

D(2) dopamine receptor [2] = molecular target: T1, D(2) dopamine receptor; assay: Displacement of [3H]raclopride from rat dopamine D2(short) receptor expressed in CHOK1 cells; format: cell-based, CHO-K1
[3] = molecular target: D(2) dopamine receptor (Rattus norvegicus) (UniProt P61169); assay: Agonist activity at rat dopamine D2(short) receptor expressed in CHOK1 cells by [35S]GTPgammaS binding assay relative to quinpirole; format: functional, cell-based; conditions: CHO-K1
Chain of D(2) dopamine receptor (Rattus norvegicus) (P61169 whole entry): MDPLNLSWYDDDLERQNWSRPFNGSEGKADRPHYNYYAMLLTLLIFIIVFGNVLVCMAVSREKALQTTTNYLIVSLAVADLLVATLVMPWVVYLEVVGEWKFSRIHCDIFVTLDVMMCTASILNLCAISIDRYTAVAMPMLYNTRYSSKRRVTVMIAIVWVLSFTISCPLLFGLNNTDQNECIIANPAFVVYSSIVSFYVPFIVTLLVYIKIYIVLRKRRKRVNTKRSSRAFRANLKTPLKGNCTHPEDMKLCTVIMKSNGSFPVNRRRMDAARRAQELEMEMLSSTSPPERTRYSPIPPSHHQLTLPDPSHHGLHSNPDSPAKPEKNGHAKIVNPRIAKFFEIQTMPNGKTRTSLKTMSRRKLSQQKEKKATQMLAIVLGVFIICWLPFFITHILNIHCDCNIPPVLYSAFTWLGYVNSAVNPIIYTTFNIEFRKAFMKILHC

D(2) dopamine receptor [4] = molecular target: T1, D(2) dopamine receptor; assay: Agonist activity at rat dopamine D2(short) receptor expressed in CHOK1 cells by [35S]GTPgammaS binding assay; format: functional, cell-based, CHO-K1
D(2) dopamine receptor [5] = molecular target: D(2) dopamine receptor (Homo sapiens, UniProt P14416); assay: biochemical
Chain of D(2) dopamine receptor (Homo sapiens, UniProt P14416) (P14416 whole entry): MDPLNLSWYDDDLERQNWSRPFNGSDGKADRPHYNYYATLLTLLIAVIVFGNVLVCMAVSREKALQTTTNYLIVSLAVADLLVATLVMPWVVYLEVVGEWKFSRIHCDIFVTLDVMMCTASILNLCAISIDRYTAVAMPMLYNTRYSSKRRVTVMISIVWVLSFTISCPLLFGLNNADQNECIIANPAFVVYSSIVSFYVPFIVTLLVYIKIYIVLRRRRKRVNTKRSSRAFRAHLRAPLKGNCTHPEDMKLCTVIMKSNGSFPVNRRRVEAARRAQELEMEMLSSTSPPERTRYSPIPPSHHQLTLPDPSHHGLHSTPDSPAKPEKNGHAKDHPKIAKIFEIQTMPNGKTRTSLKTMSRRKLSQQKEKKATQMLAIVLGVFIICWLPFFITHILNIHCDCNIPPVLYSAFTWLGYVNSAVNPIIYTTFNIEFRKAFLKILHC
Description: Displacement of [3H]raclopride from human cloned dopamine D2 receptor expressed in CHO cell membrane

T1 sequence (P61169 whole entry): as the sequence (P61169 whole entry) above

Structure (SMILES) | Ki (D(2) dopamine receptor [1]) [µM] | Ki (D(1A) dopamine receptor) [µM] | Ki (D(2) dopamine receptor [2]) [µM] | Efficacy [3] [%] | EC50 (D(2) dopamine receptor [4]) [µM] | Ki (D(2) dopamine receptor [5]) [µM]
CSc1cc2c3c(c1)-c1c(ccc(O)c1O)C[C@H]3N(C)CC2 | 0.0547 | – | – | – | – | –
CN1CCc2cc(OCCOc3cc4c5c(c3)-c3c(ccc(O)c3O)C[C@H]5N(C)CC4)cc3c2[C@H]1Cc1ccc(O)c(O)c1-3 | – | 5.2 | 0.345 | 18 | 0.308 | –
CN1CCc2cc(OCCOCCO)cc3c2[C@H]1Cc1ccc(O)c(O)c1-3 | – | 7.6 | 0.587 | 58 | 0.939 | –
CN1CCc2cc(N)cc3c2[C@H]1Cc1ccc(O)c(O)c1-3 | 0.0199 | – | – | – | – | –
CN1CCc2cc(OCCO)cc3c2[C@H]1Cc1ccc(O)c(O)c1-3 | – | 5.3 | 0.347 | 19 | 0.315 | –
CCCOc1cc2c3c(c1)-c1c(ccc(O)c1O)C[C@H]3N(C)CC2 | – | 3.5 | 0.075 | 71 | 0.076 | –
COc1cc2c3c(c1)-c1c(ccc(O)c1O)CC3N(C)CC2 (stereo unspecified) | – | 2.6 | 0.074 | 66 | 0.114 | –
CCCCOc1cc2c3c(c1)-c1c(ccc(O)c1O)C[C@H]3N(C)CC2 | – | 2.1 | 0.06 | 57 | 0.058 | –
CN1CCc2cc(F)cc3c2[C@H]1Cc1ccc(O)c(O)c1-3 | 0.00043 | – | – | – | – | –
CN1CCc2cc(OCCOCCOc3cc4c5c(c3)-c3c(ccc(O)c3O)C[C@H]5N(C)CC4)cc3c2[C@H]1Cc1ccc(O)c(O)c1-3 | – | > 10 | 17.2 | – | > 10 | –
CN1CCc2cc(-c3ccccc3)cc3c2[C@H]1Cc1ccc(O)c(O)c1-3 | – | – | – | – | – | 0.088
CCOc1cc2c3c(c1)-c1c(ccc(O)c1O)C[C@H]3N(C)CC2 | – | 2.9 | 0.044 | 70 | 0.055 | –
CN1CCc2cc(-c3ccc(O)cc3)cc3c2[C@H]1Cc1ccc(O)c(O)c1-3 | – | – | – | – | – | 0.0038
